Measured values taken from ChEMBL document CHEMBL3045439, “Isoforms of the heteropteran Nezara viridula ecdysone receptor: protein characterisation, RH5992 insecticide binding and homology modelling” (Pest Manag Sci, 2011).

Key:
Assay type in all cases: protein-complex assay
Ecdysone receptor [1] = molecular target: T1, Ecdysone receptor (Nezara viridula, UniProt E5L6Y0+E5L6Y1); assay: Displacement of [3H]PonA from recombinant Nezara viridula EcR10
T1 sequence (E5L6Y1 whole entry): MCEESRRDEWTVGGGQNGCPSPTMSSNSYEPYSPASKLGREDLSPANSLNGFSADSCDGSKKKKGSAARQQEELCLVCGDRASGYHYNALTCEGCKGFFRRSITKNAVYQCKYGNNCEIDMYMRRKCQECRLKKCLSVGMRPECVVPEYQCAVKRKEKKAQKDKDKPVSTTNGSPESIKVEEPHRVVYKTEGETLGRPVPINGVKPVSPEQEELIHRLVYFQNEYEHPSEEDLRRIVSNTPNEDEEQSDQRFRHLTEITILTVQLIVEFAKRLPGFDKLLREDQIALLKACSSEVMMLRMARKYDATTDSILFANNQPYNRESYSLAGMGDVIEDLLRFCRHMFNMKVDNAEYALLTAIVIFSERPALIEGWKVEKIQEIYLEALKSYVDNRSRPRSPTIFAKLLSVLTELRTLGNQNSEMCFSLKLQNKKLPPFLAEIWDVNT
T1 sequence (E5L6Y0 whole entry): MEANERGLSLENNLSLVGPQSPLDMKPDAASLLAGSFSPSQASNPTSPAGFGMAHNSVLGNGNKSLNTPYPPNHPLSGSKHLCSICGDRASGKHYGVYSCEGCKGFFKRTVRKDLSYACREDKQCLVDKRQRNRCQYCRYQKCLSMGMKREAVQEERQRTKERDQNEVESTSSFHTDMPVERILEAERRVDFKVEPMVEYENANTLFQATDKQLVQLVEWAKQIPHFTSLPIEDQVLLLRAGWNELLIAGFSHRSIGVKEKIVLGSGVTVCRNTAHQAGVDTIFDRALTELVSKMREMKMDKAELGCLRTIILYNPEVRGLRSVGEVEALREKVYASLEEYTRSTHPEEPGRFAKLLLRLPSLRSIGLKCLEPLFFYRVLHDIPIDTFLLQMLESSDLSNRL

Ecdysone receptor [2] = molecular target: T1, Ecdysone receptor; assay: Binding affinity to Nezara viridula EcR
Ecdysone receptor [3] = molecular target: T2, Ecdysone receptor (Leptinotarsa decemlineata, UniProt Q4W6C8+Q4W6D0); assay: Binding affinity to Leptinotarsa decemlineata EcR
T2 sequence (Q4W6D0 whole entry): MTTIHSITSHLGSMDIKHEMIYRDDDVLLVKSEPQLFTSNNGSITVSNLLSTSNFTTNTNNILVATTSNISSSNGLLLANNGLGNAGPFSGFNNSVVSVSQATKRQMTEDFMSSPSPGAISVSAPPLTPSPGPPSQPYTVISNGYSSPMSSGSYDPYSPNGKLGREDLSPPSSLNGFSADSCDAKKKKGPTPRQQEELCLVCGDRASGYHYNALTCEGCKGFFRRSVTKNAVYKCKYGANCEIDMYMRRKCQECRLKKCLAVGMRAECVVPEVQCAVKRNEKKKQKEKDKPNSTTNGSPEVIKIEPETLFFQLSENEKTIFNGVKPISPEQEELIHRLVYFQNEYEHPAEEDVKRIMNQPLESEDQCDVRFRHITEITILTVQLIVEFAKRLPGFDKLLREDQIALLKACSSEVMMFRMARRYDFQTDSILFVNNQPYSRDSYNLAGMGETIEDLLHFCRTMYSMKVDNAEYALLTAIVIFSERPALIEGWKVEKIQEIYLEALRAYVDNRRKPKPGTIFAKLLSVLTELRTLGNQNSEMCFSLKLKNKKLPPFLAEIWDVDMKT
T2 sequence (Q4W6C8 whole entry): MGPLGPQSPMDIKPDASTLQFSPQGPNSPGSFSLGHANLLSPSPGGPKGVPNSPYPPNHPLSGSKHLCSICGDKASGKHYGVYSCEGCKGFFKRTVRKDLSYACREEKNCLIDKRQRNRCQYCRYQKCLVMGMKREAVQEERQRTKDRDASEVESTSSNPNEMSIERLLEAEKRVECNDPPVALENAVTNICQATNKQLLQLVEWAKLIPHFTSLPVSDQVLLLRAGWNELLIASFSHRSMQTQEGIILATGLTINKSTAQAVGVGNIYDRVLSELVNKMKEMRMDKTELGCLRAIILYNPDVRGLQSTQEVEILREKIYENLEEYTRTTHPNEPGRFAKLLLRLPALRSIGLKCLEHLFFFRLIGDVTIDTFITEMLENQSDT

Ecdysone receptor [4] = molecular target: T3, Ecdysone receptor (Plodia interpunctella, UniProt Q6IVK1+Q6RVD3); assay: Binding affinity to Plodia interpunctella (Indian meal moth ) EcR
T3 sequence (Q6RVD3 whole entry): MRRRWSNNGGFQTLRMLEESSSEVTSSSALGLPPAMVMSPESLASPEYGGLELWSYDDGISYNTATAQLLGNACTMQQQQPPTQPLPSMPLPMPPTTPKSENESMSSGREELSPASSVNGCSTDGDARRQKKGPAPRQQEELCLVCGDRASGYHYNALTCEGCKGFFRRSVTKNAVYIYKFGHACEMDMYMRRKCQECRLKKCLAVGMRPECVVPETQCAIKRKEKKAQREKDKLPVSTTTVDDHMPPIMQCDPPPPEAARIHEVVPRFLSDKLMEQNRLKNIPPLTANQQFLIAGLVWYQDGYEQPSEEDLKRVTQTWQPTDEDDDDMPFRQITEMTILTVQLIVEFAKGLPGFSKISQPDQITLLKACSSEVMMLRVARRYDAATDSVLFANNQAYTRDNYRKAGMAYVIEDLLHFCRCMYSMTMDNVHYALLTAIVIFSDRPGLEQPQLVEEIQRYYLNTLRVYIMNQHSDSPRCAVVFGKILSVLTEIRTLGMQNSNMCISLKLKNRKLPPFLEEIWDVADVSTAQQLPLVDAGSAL
T3 sequence (Q6IVK1 whole entry): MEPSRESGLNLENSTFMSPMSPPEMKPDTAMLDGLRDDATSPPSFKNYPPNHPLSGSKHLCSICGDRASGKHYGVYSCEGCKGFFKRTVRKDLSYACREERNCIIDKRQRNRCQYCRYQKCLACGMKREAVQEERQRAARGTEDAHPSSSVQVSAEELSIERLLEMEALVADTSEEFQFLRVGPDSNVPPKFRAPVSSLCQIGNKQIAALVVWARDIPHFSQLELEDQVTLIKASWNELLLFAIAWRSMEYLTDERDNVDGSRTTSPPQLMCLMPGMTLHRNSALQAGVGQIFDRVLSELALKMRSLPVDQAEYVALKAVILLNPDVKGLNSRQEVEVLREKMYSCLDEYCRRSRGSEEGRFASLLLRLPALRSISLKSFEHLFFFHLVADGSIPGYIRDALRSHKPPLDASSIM

Ecdysone receptor [5] = molecular target: T1, Ecdysone receptor; assay: Binding affinity to Nezara viridula EcR11

IC50 (Ecdysone receptor [2])	IC50 (Ecdysone receptor [3])	Structure (SMILES)	IC50 (Ecdysone receptor [1])	Ki (Ecdysone receptor [1])	Ki (Ecdysone receptor [4])	Ki (Ecdysone receptor [2])	Ki (Ecdysone receptor [5])	Ki (Ecdysone receptor [3])
1050 nM	437 nM	CC(C)(O)CC[C@@H](O)[C@](C)(O)[C@H]1CC[C@@]2(O)C3=CC(=O)[C@@H]4C[C@@H](O)[C@@H](O)C[C@]4(C)[C@H]3CC[C@]12C [20-HYDROXYECDYSONE]	3000 nM	2500 nM				
		CCc1ccc(C(=O)NN(C(=O)c2cc(C)cc(C)c2)C(C)(C)C)cc1 [TEBUFENOZIDE]	20000 nM	16800 nM	3.16 nM	25100 nM	25100 nM	2510 nM
